Entries after “also recorded” stand apart in the source; their conditions may differ.

For one data set, the system named is visceral adipocytes. Description: LipocyteProfiler of isoproterenol-treated vs DMSO-treated visceral adipocytes (AMSCs, day 14). Format: cell-based, human. The following applies: for BODIPY-related Granularity (lipid droplet sizes): isoproterenol vs DMSO, across the full granularity size spectra. As for the experimental part:
For imaging, cells were seeded at 10K cells/well in 96-well plates (Cell Carrier, Perkin Elmer #6005550) and induced 4 days after seeding. For RNAseq, cells were seeded at 40K cells/well in 12-well dishes (Corning). […] Adipogenic differentiation was induced by changing culture medium to induction medium. […] Visceral-derived AMSCs were differentiated by further adding 2% FBS as well as 0.1 mM oleic and linoleic acid to the induction and differentiation media. For isoproterenol stimulation experiments, 1 μM isoproterenol was added to the differentiation media and cells treated overnight. Human primary AMSCs and PHH were plated in 96-well CellCarrier plates (Perkinelmer #6005550). AMSCs were differentiated for 14 days and high content imaging was performed at day 0, day 3, day 8 and day 14 of adipogenic differentiation. Primary human hepatocytes were stained after 48 h in culture, and 24h following treatment with oleic acid or metformin. On the respective day of the assay, cell culture media was removed and replaced by 0.5 μM Mitotracker staining solution (1 mM MitoTracker Deep Red stock (Invitrogen #M22426) diluted in culture media) to each well followed by 30 minutes incubation at 37° C.' protected from light. […] PFA was removed and cells were washed once with Hank's Balanced Salt Solution (1×), HBSS (Gibco #14025076). […] Finally, staining solution was removed and cells were washed three times with HBSS. Cells were imaged using a Opera Phenix High content screening system. […] Prior to processing, flat field illumination correction was performed using functions generated from the median intensity across each plate. Nuclei were identified using the DAPI stain and then expanded to identify whole cells using the Phalloidin/WGA and BODIPY stains. Regions of cytoplasm were then determined by removing the Nuclei from the Cell segmentations. Speckles of BODIPY staining were enhanced to assist in detection of small and large individual Lipid objects. For each object set measurements were collected representing size, shape, intensity, granularity, texture, colocalization and distance to neighbouring objects. After LipocyteProfiler (LP) feature extraction data was filtered by applying automated and manual quality control steps. […] Second, every field was assessed visually and fields that were corrupted by experimental induced technical artifacts were removed. Furthermore, blocklisted features (Way, Gregory (2019): Blocklist Features-Cell Profiler. figshare. […] After filtering data were normalised per plate using a robust scaling approach (Pedregosa et al. 2011) that subtracts the median from each variable and divides it by the interquartile range. Individual wells were aggregated for downstream analysis by cell depot and day of differentiation.

In a further data set the test system is subcutaneous adipocytes. Description: LipocyteProfiler of isoproterenol-treated vs DMSO-treated subcutaneous adipocytes (AMSCs, day 14). Format: cell-based, human. The following applies: subcutaneous adipocytes/AMSCs at day 14, isoproterenol. As to the method: For imaging, cells were seeded at 10K cells/well in 96-well plates (Cell Carrier, Perkin Elmer #6005550) and induced 4 days after seeding. For RNAseq, cells were seeded at 40K cells/well in 12-well dishes (Corning). […] Adipogenic differentiation was induced by changing culture medium to induction medium. […] Visceral-derived AMSCs were differentiated by further adding 2% FBS as well as 0.1 mM oleic and linoleic acid to the induction and differentiation media. For isoproterenol stimulation experiments, 1 μM isoproterenol was added to the differentiation media and cells treated overnight. Human primary AMSCs and PHH were plated in 96-well CellCarrier plates (Perkinelmer #6005550). AMSCs were differentiated for 14 days and high content imaging was performed at day 0, day 3, day 8 and day 14 of adipogenic differentiation. Primary human hepatocytes were stained after 48 h in culture, and 24h following treatment with oleic acid or metformin. […] Regions of cytoplasm were then determined by removing the Nuclei from the Cell segmentations. […] Second, every field was assessed visually and fields that were corrupted by experimental induced technical artifacts were removed. […]

Data set [1] relates to primary human hepatocytes (PHH). Nature of the data set: LipocyteProfiler of drug-treated primary human hepatocytes. The data set is classed as cell-based. As to conditions: PHH, 24h oleic acid (0.3 mM). As to the method:
Primary human hepatocytes (PHH) were purchased from BioIVT. Donor lot YNZ was used in this study. PHH were thawed and immediately resuspended in CP media (BioIVT) supplemented with torpedo antibiotic (BioIVT). Cell count and viability were assessed by trypan blue exclusion test prior to plating. […] Four hours after plating, media was replaced with fresh CP media. After 24 h, media was replaced with fresh CP media or CP media containing oleic acid (0.3 mM) or metformin (5 mM). Hepatocytes were incubated for an additional 24 h prior to processing. Human primary AMSCs and PHH were plated in 96-well CellCarrier plates (Perkinelmer #6005550). […] Primary human hepatocytes were stained after 48 h in culture, and 24h following treatment with oleic acid or metformin. On the respective day of the assay, cell culture media was removed and replaced by 0.5 μM Mitotracker staining solution (1 mM MitoTracker Deep Red stock (Invitrogen #M22426) diluted in culture media) to each well followed by 30 minutes incubation at 37° C.' protected from light. […] PFA was removed and cells were washed once with Hank's Balanced Salt Solution (1×), HBSS (Gibco #14025076). […] Finally, staining solution was removed and cells were washed three times with HBSS. Cells were imaged using a Opera Phenix High content screening system. […] Prior to processing, flat field illumination correction was performed using functions generated from the median intensity across each plate. Nuclei were identified using the DAPI stain and then expanded to identify whole cells using the Phalloidin/WGA and BODIPY stains. Regions of cytoplasm were then determined by removing the Nuclei from the Cell segmentations. Speckles of BODIPY staining were enhanced to assist in detection of small and large individual Lipid objects. For each object set measurements were collected representing size, shape, intensity, granularity, texture, colocalization and distance to neighbouring objects. After LipocyteProfiler (LP) feature extraction data was filtered by applying automated and manual quality control steps. […] Second, every field was assessed visually and fields that were corrupted by experimental induced technical artifacts were removed. Furthermore, blocklisted features (Way, Gregory (2019): Blocklist Features-Cell Profiler. figshare. […] After filtering data were normalised per plate using a robust scaling approach (Pedregosa et al. 2011) that subtracts the median from each variable and divides it by the interquartile range. Individual wells were aggregated for downstream analysis by cell depot and day of differentiation.

For data set [2] the following is noted: cited from earlier work.
Setting [3] is: 1 year follow up clinical trial.

As to `CC(C)NCC(O)c1ccc(O)c(O)c1` (centres unmarked) [isoproterenol], the “Mitochondrial Intensity” value with visceral adipocytes (24 hour isoproterenol (1 μM) vs DMSO-treated controls, day 14, p=0.0413) was “increases”. Moreover, the “mitochondrial Texture_Entropy” value with visceral adipocytes (24 hour isoproterenol vs DMSO-treated controls, p=0.0092) was “differences; also recorded: increases”. The “BODIPY Texture Entropy” value in the data set on visceral adipocytes (24 hour isoproterenol vs DMSO-treated controls, p=0.032) was “decrease”. Further, the “BODIPY MedianIntensity” value in the data set with visceral adipocytes (24 hour isoproterenol vs DMSO-treated controls, p=0.041) is on record as “decrease”. Also, the “BODIPY-related Granularity (lipid droplet sizes)” value with visceral adipocytes is reported as “decreased”; with visceral adipocytes (listed as Isoproterenol), “reduces”. Besides, the “effect on morphological profile” value in the data set with subcutaneous adipocytes is on record as “no effect”.

In the case of `CCCCCCCC/C=C\CCCCCCCC(=O)O` [oleic acid], in data set [1] (p 7.21e-07), the “BODIPY Texture_AngularSecondMoment” value is “differences”. For the same compound, the “lipid droplet number (LargeBODIPYObjects_Count)” value in data set [1] (p=2.3e-11) was “increased”. Further, the “overall lipid content (BODIPY MeanIntensity)” value in data set [1] (p=1.21e-09) is recorded as “increased”. For the same compound, the “BODIPY Texture Entropy” value in data set [1] (p=2.56e-09) was “differences”.

For the compound `CC1(C)CCC(CN2CCN(c3ccc(C(=O)NS(=O)(=O)c4ccc(NCC5CCOCC5)c([N+](=O)[O-])c4)c(Oc4cnc5[nH]ccc5c4)c3)CC2)=C(c2ccc(Cl)cc2)C1` [venetoclax], in data set [2] (setting [3]), the “hyperglycemia, share of patients” value was 16% and the “severe hyperglycemia, share of patients” value is reported as 5%. The “loss of body weight, share of cases” value in data set [2] (clinical trial) was 11-13%.
